Data reported in patent publication US6291676A, “Water-soluble derivatives of camptothecin/homocamptothecin” (priority 2000, dated 2001).

Tests used:
topoisomerase I = experiment: Topoisomerase I mediated DNA cleavage (cleavable complex induction); format: biochemical
Source text: Evaluation of the Relative Abilities of the Novel Polyamine Camptothecin Analogs to Induce Topoisomerase I Mediated DNA Single Strand Breaks. We have evaluated the abilities of the novel compounds of the present invention to inhibit the topoisomerase I enzyme. In these experiments the oligonucleotide was labeled at the 3'-end of the upper (scissile) strand with 32P-α-cordycepin and terminal transferase (Pommier, Y., Kohlhagen, G., Kohn, F., Leteurtre, F., Wani, M. C., and Wall, M. E. Proc. Natl. Acad. Sci. U.S.A. 92:8861-8865, 1995). Topoisomerase I (Top1) cleavage generates a 23mer that can be easily detected by electrophoresis and quantitated by Phosphorimager analysis. Tanizawa et al. (Tanizawa, A., Kohn, K. W., Kohlhagen, G., Leteurtre, F., and Pommier, Y. Biochemistry […]:7200-7206, 1995) have previously shown that camptothecin derivatives differ in the manner in which they stabilize the top1 cleavable complexes that they induce. The novel polyamine camptothecins of the present invention were compared in this assay. 0.35M NaCl was added to force top 1-mediated DNA religation and DNA cleavage was measured at various times after NaCl addition. FIG. 9 is a typical phosphoimager picture showing the timecourse of the effects of various camptothecins on the relaxation of DNA in the presence of topoisomerase I. Topoisomerase I-mediated cleavage generates DNA fragments that can be readily detected by electrophoresis and quantitated by phosphorimager analysis.
FIG. 10 is a phosphoimager picture showing the dose response of various camptothecin compounds described in the present invention on the relaxation of DNA in the presence of topoisomerase I. Topoisomerase I-mediated cleavage generates DNA fragments that can be readily detected by electrophoresis and quantitated by phosphorimager analysis as shown.
FIG. 11 contains a phosphoimager picture (bottom figure) showing the dose response effects of several of the novel polyamine camptothecins of the current invention on the relaxation of DNA in the presence of topoisomerase I. Topoisomerase I-mediated cleavage generates DNA fragments that can be readily detected by electrophoresis and quantitated by phosphorimager analysis (top figure).

[1] = Stability of the lactone form of CT-17 free and in liposomes in PBS, plasma, whole blood; format: physicochemical, human
Procedure: To determine the ability of CT-17 to be retained in liposomal preparations,the agent was loaded into liposomes using the active loading methodology as described previously (U.S. Pat. No. 5,192,549). Two types of liposomes were used: 1) non-stealth liposomes and 2) stealth liposomes. The liposome preparations were then incubated in various biological fluids to determine drug retention in the particle. In these experiments the lipid distearoylphosphatidylcholine (DSPC) was obtained from Avanti Polar Lipids (Birmingham, AL) and cholesterol was from Nutritional Biochemicals Corp., Cleveland, Ohio. […] Solvent was evaporated at 55-60° C. on rotary evaporator for 15 min to form the lipid film. The residual solvent was then removed under high vacuum at room temperature overnight. The lipid film was hydrated using 5 ml of 0.1 M ammonium sulfate. MLVs were formed by shaking and occasional vortexing at 55-60° C. LUVs were formed by passing the liposomal suspension through two 100 nm stacked polycarbonate filters under 20 psi pressure of nitrogen using 11 passes at 55-60° C. (Liposo-Fast-Pneumatic from AVESTIN, Toronto, Canada).
FIG. 7 is a graphical comparison of the stability of the lactone form of the camptothecin drug CT-17 as a function of time. […]

[2] = Fluorescence emission spectra in solvents and vesicle suspensions; format: physicochemical; details: 37° C
Procedure: FIG. 1 is the fluorescence emission spectra of 1 μM of 7-(1-Aminoethyl)camptothecin (7AEC) in various solvents and suspensions such as phosphate buffered saline, ethanol, and phosphate buffered saline containing small unilamellar vesicles (SUVs) composed either of dimyristoylphosphatidylcholine (DMPC) or dimyristoylphosphatidlyglycerol (DMPG). Experiments were conducted at 37° C. using exciting light of 370 nm.
FIG. 2 is the fluorescence emission spectra of 4 μM of 7-[N-(4-methyl-1-piperazino) aminomethyl]-(20S)-camptothecin (CT-17) in various solvents and suspensions such as phosphate buffered saline, ethanol, and phosphate buffered saline containing small unilamellar vesicles (SUVs) composed either of DMPC or DMPG. Experiments were conducted at 37° C. using exciting light of 370 nm.
Fluorescence Instrumentation. Steady-state fluorescence measurements were obtained on a SLM Model 9850 spectrofluorometer with a thermostated cuvette compartment. This instrument was interfaced with an IBM PS/2 model 55 SX computer. Excitation and emission spectra were recorded with an excitation resolution of 8 nm and an emission resolution of 4 nm. In all cases spectra were corrected for background fluorescence and scatter from unlabeled lipids or from solvents by subtraction of the spectrum of a blank. Steady-state fluorescence intensity measurements were made in the absence of polarizers. […]

In the case of `CC[C@@]1(O)C(=O)OCc2c1cc1n(c2=O)Cc2c-1nc1ccccc1c2CNN1CCN(C)CC1` [CT-17, 7-[N-(4-methyl-1-piperazino)aminomethyl]-(20S)-camptothecin], the “potency at promoting DNA cleavage relative to camptothecin and SN-38” value (topoisomerase I; FIG. 11 quantitation) was “somewhat less potent”, the “distribution of cleavage sites vs camptothecin or SN-38” value (topoisomerase I; topoisomerase I) was “comparable to those generated by camptothecin or 7-ethyl-10-hydroxycamptothecin (SN-38)” and the “induction of cleavable complex formation” value (topoisomerase I; topoisomerase I, 3'-32P-labeled oligonucleotide) was “capable of inducing cleavable complex formation”. The “hydrolysis of free drug to inactive carboxylate” value [1] was “high rate and extensive amount of hydrolysis”, the “change of fluorescence emission upon introduction of lipid bilayers” value ([2]; PBS with lipid bilayers) was “increase in fluorescence intensity” and the “shift of the fluorescence emission spectra in the presence of liposomes” value ([2]; liposomes of DMPC or DMPG, λex 370 nm) was “shifts to shorter wavelength”.
